# According to patent EP0021678B1, “1-Sulpho-2-oxoazetidine derivatives, their production and pharmaceutical compositions thereof” (Takeda Chemical Industries, Ltd., priority 1979, dated 1981):
# Read-outs that look alike come from different tables or passages of the source.
# Columns and labels:
# Experiment in all cases: Anti-bacterial test, minimum inhibitory concentration on agar
# Format in all cases: cell-based
# [1] = system: Pseudomonas aeruginosa U 31
# Description: (§1) The compound (I) thus obtained is useful as a drug, being active against certain gram-positive and gram-negative bacteria. By way of example, the compounds are active against the following micro-organisms.
# (§2) The media and compounds employed in the anti-bacterial test are as follows: • Media: • TSA = Trypticase soy agar • [Baltimore Biologicals (U.S.A.)] • B-TSA = Blood trypticase soy agar • Compounds: • Compound A = Sodium 3-[2-(2-amino-4-thiazolyl)-2-methoxyiminoacetamido]-2-oxo-azetidine-1-sulphonate • Compound B = Sodium 3-[D(-)-N-(4-ethyl-2,3-dioxo-1-piperazinocarbonyl)-phenyl-glycin- amido]-2-oxoazetidine-1-sulphonate • Compound C = Sodium 3-[D(-)-N-(4-ethyl-2,3-dioxo-1-piperazinocarbonyl)phenylglycinamido]-3-methoxy-2-oxoazetidine-1-sulphonate • Compound D = Sodium 3-[2-(4-ethyl-2,3-dioxo-1-piperazinocarboxamido)-2-(2-amino-4-thiazolyl)-acetamido]-2-oxoazetidine-1-sulphonate • Compound E = Sodium 3-[DL-2-(4-ethyl-2,3-dioxo-1-piperazinocarboxamido)-2-thienylacetamido]-2-oxoazetidine-1-sulphonate • Compound F = Sodium 3-[D-2-(4-ethyl-2,3-dioxo-1-piperazinocarboxamido)-2-thienylacetamido]-2-oxoazetidine-1-sulphonate • Compound G = Sodium 3-[D-2-(4-n-octyl-2,3-dioxo-1-piperazinocarboxamido)-2-phenylacetamido]-2-oxoazetidine-1-sulphonate • Compound H = Sodium 3-[2-(4-n-octyl-2,3-dioxo-1-piperazinocarboxamido)-2-(2-amino-4-thiazolyl)-acetamido]-2-oxoazetidine-1-sulphonate • Compound I = Sodium 3-[D-2-[(2-oxo-3-furfurylideneaminoimidazolidin-1-yl)-carboxamido]-2-phenylacetamido]-2-oxoazetidine-1-sulphonate • Compound J = Sodium 3-[2-(4-n-octyl-2,3-dioxo-1-piperazinocarboxamido)-2-thienylacetamido]-2-oxoazetidine-1-sulphonate • Compound K = Sodium 3-[D-2-[[2-oxo-3-(thiophen-2-aidoimino)-imidazolidin-1-yl]-carboxamido]-2-phenylacetamido]-2-oxoazetidine-1-sulphonate • Compound L = Sodium 3-[2-[(2-oxo-3-furfurylideneaminoimidazolidin-1-yl)-carboxamido]-2-thienylacetamido]-2-oxoazetidine-1-sulphonate
# [2] = system: Streptococcus faecium IFO 3128; details: for MIC: Enterococcus faecium
# Description: as §1, §2
# [3] = system: Streptococcus pyogenes S—8; details: for MIC: read-out: Minimum inhibitory concentration
# Description: as §1, §2
# [4] = system: Citrobacter freundii IFO 12681
# Description: as §1, §2
# [5] = system: Corynebacterium diphtheriae Toronto; details: for MIC: read-out: Minimum inhibitory concentration
# Description: as §1, §2
# [6] = system: Acinetobacter calcoaceticus IFO 13006
# Description: as §1, §2
# [7] = system: Staphylococcus aureus FDA209P; details: for MIC: Staphylococcus aureus, FDA209P, read-out: Minimum inhibitory concentration
# Description: as §1, §2
# [8] = system: Proteus vulgaris IFO 3988
# Description: as §1, §2
# [9] = system: Escherichia coli NIHJ JC—2; details: for MIC: read-out: Minimum inhibitory concentration
# Description: as §1, §2
# [10] = system: Proteus mirabilis IFO 3849
# Description: as §1, §2
# [11] = system: Pseudomonas aeruginosa IFO 3455; details: for MIC: Pseudomonas aeruginosa, IFO3455, read-out: Minimum inhibitory concentration
# Description: as §1, §2
# Klebsiella pneumoniae DT = details: for MIC: read-out: Minimum inhibitory concentration
# Description: as §1, §2
# [12] = system: Proteus morganii IFO 3168; details: for MIC: Morganella morganii
# Description: as §1, §2
# [13] = system: Streptococcus pyogenes E—14; details: for MIC: read-out: Minimum inhibitory concentration
# Description: as §1, §2
# [14] = system: Streptococcus pneumoniae Type I; details: for MIC: read-out: Minimum inhibitory concentration
# Description: as §1, §2
# [15] = system: Bordetella bronchiseptica Sagami; details: for MIC: read-out: Minimum inhibitory concentration
# Description: as §1, §2
# Escherichia coli O—111 = details: medium TSA
# Description: as §1, §2
# [16] = system: Staphylococcus aureus 1840
# Description: as §1, §2
# [17] = system: Serratia marcescens IFO 12648
# Description: as §1, §2
# Candida albicans TA = details: for MIC: read-out: Minimum inhibitory concentration
# Description: as §1, §2
# [18] = system: Enterobacter cloacae IFO 12937
# Description: as §1, §2
# [19] = system: Staphylococcus aureus 308A—1; details: for MIC: Staphylococcus aureus, read-out: Minimum inhibitory concentration
# Description: as §1, §2
# [20] = system: Streptococcus mitis America; details: for MIC: Streptococcus mitis, read-out: Minimum inhibitory concentration
# Description: as §1, §2
# Escherichia coli T-7 = details: for MIC: T7, medium TSA
# Description: as §1, §2
# [21] = U31, Pseudomonas aeruginosa U 31, medium TSA, read-out: Minimum inhibitory concentration
# [22] = Streptococcus pyogenes S—8, medium B—TSA
# [23] = Corynebacterium diphtheriae Toronto, medium B—TSA
# [24] = Staphylococcus aureus FDA209P, medium B—TSA
# [25] = Staphylococcus aureus FDA209P, medium TSA
# [26] = Escherichia coli NIHJ JC—2, medium TSA
# [27] = IFO3849, Proteus mirabilis IFO 3849, medium TSA, read-out: Minimum inhibitory concentration
# [28] = Klebsiella pneumoniae DT, medium TSA
# [29] = IFO3168, Proteus morganii IFO 3168, medium TSA, read-out: Minimum inhibitory concentration
# [30] = Streptococcus pyogenes E—14, medium B—TSA
# [31] = Streptococcus pneumoniae Type I, medium B—TSA
# [32] = Bordetella bronchiseptica Sagami, medium B—TSA
# [33] = IFO12648, Serratia marcescens IFO 12648, medium TSA, read-out: Minimum inhibitory concentration
# [34] = Candida albicans TA, medium TSA
# [35] = IFO12937, Enterobacter cloacae IFO 12937, medium TSA, read-out: Minimum inhibitory concentration
# [36] = Proteus vulgaris, IFO3988, read-out: Minimum inhibitory concentration
compound,measurement,setting,value
"O=C(NC1CN(S(=O)(=O)O)C1=O)[C@H](NC(=O)N1CCN(N=Cc2ccco2)C1=O)c1ccccc1 (stereo partly drawn) [Compound I, Sodium 3-[D-2-[(2-oxo-3-furfurylideneaminoimidazolidin-1-yl)-carboxamido]-2-phenylacetamido]-2-oxoazetidine-1-sulphonate]",MIC,[1]; [21],> 100 µg/mL
same,MIC,"[2]; IFO3128, Streptococcus faecium IFO 3128, medium B—TSA, read-out: Minimum inhibitory concentration",> 100 µg/mL
same,MIC,[3]; [22],0.78 µg/mL
same,MIC,"[4]; IFO12681, Citrobacter freundii IFO 12681, medium TSA, read-out: Minimum inhibitory concentration",6.25 µg/mL
same,MIC,[5]; [23],0.78 µg/mL
same,MIC,"[6]; IFO13006, Acinetobacter calcoaceticus IFO 13006, medium TSA, read-out: Minimum inhibitory concentration",25 µg/mL
same,MIC,[7]; [24],6.25 µg/mL
same,MIC,[7]; [25],6.25 µg/mL
same,MIC,"[8]; IFO3988, Proteus vulgaris IFO 3988, medium TSA, read-out: Minimum inhibitory concentration",0.2 µg/mL
same,MIC,[9]; [26],1.56 µg/mL
same,MIC,[10]; [27],1.56 µg/mL
same,MIC,[11],3.13 µg/mL
same,MIC,Klebsiella pneumoniae DT; [28],0.2 µg/mL
same,MIC,[12]; [29],12.5 µg/mL
same,MIC,[13]; [30],0.39 µg/mL
same,MIC,[14]; [31],1.56 µg/mL
same,MIC,[15]; [32],> 100 µg/mL
same,MIC,Escherichia coli O—111,3.13 µg/mL
same,MIC,"[16]; Staphylococcus aureus 1840, medium TSA, read-out: Minimum inhibitory concentration",50 µg/mL
same,MIC,[17]; [33],1.56 µg/mL
same,MIC,Candida albicans TA; [34],> 100 µg/mL
same,MIC,[18]; [35],25 µg/mL
same,MIC,[19],3.13 µg/mL
same,MIC,[20],3.13 µg/mL
same,MIC,Escherichia coli T-7,> 100 µg/mL
"CON=C(C(=O)NC1CN(S(=O)(=O)[O-])C1=O)c1csc(N)n1.[Na+] (stereo not shown) [Compound A, Sodium 3-[2-(2-amino-4-thiazolyl)-2-methoxyiminoacetamido]-2-oxo-azetidine-1-sulphonate]",MIC,"[1]; Pseudomonas aeruginosa, U31, read-out: Minimum inhibitory concentration",> 100 µg/mL
same,MIC,"[2]; IFO3128, read-out: Minimum inhibitory concentration",> 100 µg/mL
same,MIC,[3]; Streptococcus pyogenes,3.13 µg/mL
same,MIC,"[4]; Citrobacter freundii, IFO12681, read-out: Minimum inhibitory concentration",1.56 µg/mL
same,MIC,[5]; Corynebacterium diphtheriae,1.56 µg/mL
same,MIC,"[6]; Acinetobacter calcoaceticus, IFO13006, read-out: Minimum inhibitory concentration",6.25 µg/mL
same,Minimum inhibitory concentration,[7]; [24],50 µg/mL
same,MIC,[7],50 µg/mL
same,MIC,[8]; [36],1.56 µg/mL
same,MIC,[9]; Escherichia coli,0.78 µg/mL
same,MIC,"[10]; Proteus mirabilis, IFO3849, read-out: Minimum inhibitory concentration",6.25 µg/mL
same,MIC,[11],6.25 µg/mL
same,MIC,Klebsiella pneumoniae DT; Klebsiella pneumoniae,0.78 µg/mL
same,MIC,"[12]; IFO3168, read-out: Minimum inhibitory concentration",25 µg/mL
same,MIC,[13]; Streptococcus pyogenes,3.13 µg/mL
same,MIC,[14]; Streptococcus pneumoniae,12.5 µg/mL
same,MIC,[15]; Bordetella bronchiseptica,100 µg/mL
same,MIC,Escherichia coli O—111,0.39 µg/mL
same,MIC,"[16]; Staphylococcus aureus, 1840, read-out: Minimum inhibitory concentration",100 µg/mL
same,MIC,"[17]; Serratia marcescens, IFO12648, read-out: Minimum inhibitory concentration",12.5 µg/mL
same,MIC,Candida albicans TA; Candida albicans,> 100 µg/mL
same,MIC,"[18]; Enterobacter cloacae, IFO12937, read-out: Minimum inhibitory concentration",> 100 µg/mL
same,MIC,[19],25 µg/mL
same,MIC,[20],25 µg/mL
same,MIC,Escherichia coli T-7,> 100 µg/mL
"CCN1CCN(C(=O)N[C@@H](C(=O)NC2(OC)CN(S(=O)(=O)O)C2=O)c2ccccc2)C(=O)C1=O (single isomer, unassigned) [Compound C, Sodium 3-[D(-)-N-(4-ethyl-2,3-dioxo-1-piperazinocarbonyl)phenylglycinamido]-3-methoxy-2-oxoazetidine-1-sulphonate]",MIC,[1]; [21],> 100 µg/mL
same,MIC,[3]; [22],50 µg/mL
same,MIC,[5]; [23],50 µg/mL
same,MIC,[7]; [25],100 µg/mL
same,MIC,[8]; [36],12.5 µg/mL
same,MIC,[9]; [26],50 µg/mL
same,MIC,[10]; [27],50 µg/mL
same,MIC,Klebsiella pneumoniae DT; Klebsiella pneumoniae,12.5 µg/mL
same,MIC,[12]; [29],> 100 µg/mL
same,MIC,[13]; [30],50 µg/mL
same,MIC,Escherichia coli O—111,12.5 µg/mL
same,MIC,[17]; [33],50 µg/mL
same,MIC,Candida albicans TA; [34],> 100 µg/mL
same,MIC,[18]; [35],> 100 µg/mL
"CCCCCCCCN1CCN(C(=O)NC(C(=O)NC2CN(S(=O)(=O)[O-])C2=O)c2cccs2)C(=O)C1=O.[Na+] (stereo not shown) [Compound J, Sodium 3-[2-(4-n-octyl-2,3-dioxo-1-piperazinocarboxamido)-2-thienylacetamido]-2-oxoazetidine-1-sulphonate]",Minimum inhibitory concentration,"[1]; Pseudomonas aeruginosa U 31, medium TSA",25 µg/mL
same,Minimum inhibitory concentration,"[2]; Streptococcus faecium IFO 3128, medium B—TSA",>100 µg/mL
same,Minimum inhibitory concentration,[3]; [22],1.56 µg/mL
same,Minimum inhibitory concentration,"[4]; Citrobacter freundii IFO 12681, medium TSA",3.13 µg/mL
same,Minimum inhibitory concentration,[5]; [23],0.78 µg/mL
same,Minimum inhibitory concentration,"[6]; Acinetobacter calcoaceticus IFO 13006, medium TSA",6.25 µg/mL
same,Minimum inhibitory concentration,[7]; [24],3.13 µg/mL
same,Minimum inhibitory concentration,[7]; [25],1.56 µg/mL
same,Minimum inhibitory concentration,"[8]; Proteus vulgaris IFO 3988, medium TSA",1.56 µg/mL
same,Minimum inhibitory concentration,[9]; [26],3.13 µg/mL
same,Minimum inhibitory concentration,"[10]; Proteus mirabilis IFO 3849, medium TSA",3.13 µg/mL
same,Minimum inhibitory concentration,"[11]; Pseudomonas aeruginosa IFO 3455, medium TSA",6.25 µg/mL
same,Minimum inhibitory concentration,Klebsiella pneumoniae DT; [28],1.56 µg/mL
same,Minimum inhibitory concentration,"[12]; Proteus morganii IFO 3168, medium TSA",1.56 µg/mL
same,Minimum inhibitory concentration,[13]; [30],1.56 µg/mL
same,Minimum inhibitory concentration,[14]; [31],1.56 µg/mL
same,Minimum inhibitory concentration,[15]; [32],>100 µg/mL
same,Minimum inhibitory concentration,"[16]; Staphylococcus aureus 1840, medium TSA",6.25 µg/mL
same,Minimum inhibitory concentration,"[17]; Serratia marcescens IFO 12648, medium TSA",1.56 µg/mL
same,Minimum inhibitory concentration,Candida albicans TA; [34],>100 µg/mL
same,Minimum inhibitory concentration,"[18]; Enterobacter cloacae IFO 12937, medium TSA",6.25 µg/mL
same,Minimum inhibitory concentration,"[19]; Staphylococcus aureus 308A—1, medium TSA",1.56 µg/mL
same,Minimum inhibitory concentration,"[20]; Streptococcus mitis America, medium B—TSA",25 µg/mL
same,Minimum inhibitory concentration,Escherichia coli T-7; medium TSA,>100 µg/mL
